Data published in US8388975B2, “Cancer antigen peptides derived from WT1” (International Institute of Cancer Immunology, Inc., priority 2004, dated 2013).
Read-outs that look alike come from different tables or passages of the source. Ends that are not written are not given here.

What was measured:
B-LCL cells [1] = test system: B-LCL cells
Description: (§1) The cytotoxic activity of CTLs on target cells was measured by ^51Cr-release assay. The ^51Cr-labeled target cells (1×10^4 cells/100 μL in total) were cocultured with different numbers of effector cells (100 μL) in a round-bottom 96-well plate. After culturing at 37° C. for 3-5 hours, the plate was centrifuged to separate the supernatant (100 μL) which was subjected to the measurement of γ ray. Specific cytotoxicity (% specific lysis) was calculated as follows: % specific lysis=(cpm experimental release−cpm spontaneous release)/(cpm maximal release−cpm spontaneous release)×100
One week later, PBMCs were pulsed with the peptide of SEQ ID NO: 8, and used as stimulators in the stimulation. The stimulation was conducted every one week 3 times in total. After 3 times of stimulation, CD8-positive cells were enriched by negative selection method. Further, stimulation with the peptide of SEQ ID NO: 8 was conducted 2 times. […] Experiments were carried out in the same manner as above using a peptide of SEQ ID NO: 9 and a peptide of SEQ ID NO: 2.

B-LCL cells [2] = test system: B-LCL cells; remark: listed apart in the source
Description: as §1

Description for JY cell line: (§2) After obtaining informed-consent, blood was collected from HLA-A*0201-positive healthy subjects and peripheral blood mononuclear cells (PBMCs) were isolated using Ficoll-Hypaque separation solution. HLA-A*0201-positive T2 cell lines incapable of presenting endogenous peptides to HLA due to deficit in TAP gene (J. Immunol. 150: 1763, 1993) were pulsed with the peptide of SEQ ID NO: 3 at 20 μM for 2 hours, then radiated (7500 cGy), and co-cultured with PBMCs at the cell number ratio of 1:1. As the culture solution, a complete medium composed of 45% AIM-V medium, 45% RPMI1640 medium, 10% inactivated human serum, 0.1 mM MEM non-essential amino acids, 100 ng/mL streptomycin, 100 IU/mL penicillin and 25 ng/mL 2-mercaptoethanol was used. Seven days later, the second-time stimulation was conducted in a similar manner, and thereto was added 25 IU/mL of IL-2 (Shionogi & Co., Ltd) on the next day. Stimulation was conducted five times in total, and effector cells obtained after 5 days from the last stimulation were used in the measurement of cytotoxicity.
(§3) The cytotoxic activity of CTLs on target cells was measured by ^51Cr-release assay. […] Specific cytotoxicity (% specific lysis) was calculated as follows: % specific lysis=(cpm experimental release−cpm spontaneous release)/(cpm maximal release−cpm spontaneous release)×100
Description for T2 cells: After obtaining informed-consent, blood was collected from HLA-A*0201-positive healthy subjects and peripheral blood mononuclear cells (PBMCs) were isolated using Ficoll-Hypaque separation solution. HLA-A*0201-positive T2 cell lines incapable of presenting endogenous peptides to HLA due to deficit in TAP gene (J. Immunol. 150: 1763, 1993) were pulsed with the peptide of SEQ ID NO: 3 at 20 μM for 2 hours, then radiated (7500 cGy), and co-cultured with PBMCs at the cell number ratio of 1:1. […]
as §3
The “spontaneous release” and the “maximal release” were measured in the supernatant obtained from the culture of target cells and that obtained from the culture of target cells treated with 1% Triton X-100 solution, respectively. […] The cytotoxic activity was measured using, as target cells, T2 cells pulsed with the same peptide as used in the stimulation or T2 cells not pulsed with the peptide.
Description for TF-1 cell line: as §2, §3

| Sequence | cytotoxic activity (% specific lysis) of CTLs induced by stimulation with the peptide (B-LCL cells [1]) | cytotoxic activity of CTLs induced by stimulation with the peptide on JY cells (JY cell line) | cytotoxic activity of CTLs induced by stimulation with the peptide on TF-1 cells (TF-1 cell line) | cytotoxic activity (% specific lysis) of CTLs induced by stimulation with the peptide (T2 cells) | cytotoxic activity (% specific lysis) of CTLs induced by stimulation with the peptide (B-LCL cells [2]) |
| --- | --- | --- | --- | --- | --- |
| QGSLGEQQY [SEQ ID NO: 9] | more potent cytotoxic activity on B-LCL cells pulsed with the peptide than on B-LCL cells not-pulsed with the peptide |  |  |  |  |
| VTFDGTPSY [SEQ ID NO: 8] | more potent cytotoxic activity on B-LCL cells pulsed with the peptide than on B-LCL cells not-pulsed with the peptide |  |  |  |  |
| DLNALLPAV [SEQ ID NO: 3, Asp Leu Asn Ala Leu Leu Pro Ala Val] |  | not JY cells | killed TF-1 cells | more potent cytotoxic activity on T2 cells pulsed with the peptide than on T2 cells not-pulsed with the peptide |  |
| DQLKRHQRR [SEQ ID NO: 2] | more potent cytotoxic activity on B-LCL cells pulsed with the peptide than on B-LCL cells not-pulsed with the peptide |  |  |  | more potent cytotoxic activity on B-LCL cells pulsed with the peptide than on B-LCL cells not-pulsed with the peptide |
